The values that follow come from US6656972B2, “Control of pain with endogenous cannabinoids” (Neurosciences Research Foundation, Inc., priority 1998, dated 2003).

“Also recorded” adds a separate entry of the source. Structures can show the parent of a compound that is named as a salt.

Series [1] deals with formalin-evoked pain behavior. The experiment in a line: Formalin-evoked pain behavior (paw licking, early and late phase) in mice. Format: in vivo, male Swiss mice. The note with it: for formalin-evoked nociceptive response / pain behavior (whole testing period): i.pl., 50 μg; for early phase of formalin-evoked pain behavior / late phase of formalin-evoked pain behavior: drug injected in the paw (i.pl.) together with formalin; for early phase of formalin-evoked pain behavior: 0-15 min; for late phase of formalin-evoked pain behavior: 15-30 min; for blockade of the antinociceptive effects of anandamide plus PEA (0.1 μg each): antagonist 0.1 mg per kg i.v., prior administration; for reversal of PEA-induced analgesia: prior administration of antagonist, PEA 50 μg i.pl.; for reversal of the antinociceptive effects of anandamide, WIN-55212-2 and HU-210: prior systemic administration of antagonist. The protocol: For instance, injection of dilute formalin in the hind-paws of freely moving rodents evokes a pain behavior consisting of two temporally distinct phases of licking and flexing of the injected limb. An early phase involving activation of primary sensory fibers begins immediately after formalin administration, reaches a peak within 5 min, and rapidly declines. Following an interval of 10-15 min, a second phase of sustained pain behavior appears, in which sensory fiber activity is accompanied by local inflammation and central sensitization.
Saline (10 μl) containing 5% formalin and 10% DMSO was injected subcutaneously in the hind-paws of male Swiss mice (20-25 g, Nossan, Italy). The duration of paw licking was monitored by an observer blind to the experimental treatment for periods of 0-15 min (early phase) and 15-30 min (late phase) after formalin administration. For the experiment in FIG. 4, pain behavior was monitored for 5 min periods during a 30 min period following formalin injection.

Series [2] concerns inflammatory edemas in the hind paws. The experiment in a line: Formalin-induced inflammatory paw edema (plethysmometer). Format: in vivo, Swiss mice. To be noted: after injection of formalin plus PEA (50 μg per paw); six mice; formalin alone 0.37±0.006, control 0.18±0.003.
Series [3] has as its system nerve conduction, blinking reflex of the cornea. The experiment in a line: Rabbit corneal reflex test (local anaesthetic activity). It counts as in vivo, male New Zealand rabbits. The note with it: aqueous 2% solution with 30% DMSO into the conjunctival sac. On the procedure: Local anaesthetic activity was evaluated in male New Zealand rabbits (2. 4-2.8 kg, Morini, Italy) by measuring the number of stimuli to the cornea, delivered with a Frey's horse-hair, necessary to produce the blinking reflex. Aqueous 2% solutions of PEA or lidocaine (a standard local anaesthetic) containing 30% DMSO were applied into the conjuctival sac.

Series [4] deals with behavioral response to acute thermal stimuli. The experiment in a line: Hot-plate test (time delays to escape jumping, 55.5 C) after intracerebroventricular administration. Format: in vivo, mice. The note with it: for hot-plate latencies: 10 μg (10 μg each for AEA/PEA), n = 6.
The conditions of series [5]: rats, 10 min after i.pl. injection.
The mark [6] stands for this setting: 5 min after i.c.v. administration.
Where [7] appears, read: 10 min after i.c.v. administration.
[8] abbreviates: 15 min after i.c.v. administration.
Setting [9] is: 20 min after i.c.v. administration.
[10] abbreviates: 30 min after i.c.v. administration.
Setting [11] is: 40 min after i.c.v. administration.
The mark [12] stands for this setting: 60 min after i.c.v. administration.
Setting [13] is: antagonist alone, systemic administration, 0.1 mg per kg i.v.

For the compound `CCCCC/C=C\C/C=C\C/C=C\C/C=C\CCCC(=O)N[C@H](C)CO` [methanandamide], the “formalin-evoked nociceptive response / pain behavior (whole testing period)” value in series [1] is given as “inhibited pain behavior throughout the testing period”.

Consider `CCCCCCC(C)(C)c1cc(O)c2c(c1)OC(C)(C)[C@@H]1CC=C(CO)C[C@@H]21` [HU-210], for which, in series [1], the “early phase of formalin-evoked pain behavior” value is given as “blocked” and the “late phase of formalin-evoked pain behavior” value was “blocked”.

For `CCCCCCCCCCCCCCCC(=O)NCCO` [PEA, palmitylethanolamide], in series [1], the “early phase of formalin-evoked pain behavior” value is listed as “inhibited”. In addition, the “late phase of formalin-evoked pain behavior” value in series [1] is recorded as “inhibited”. For the same compound, the “antinociceptive potency, local (i.pl.) compared with systemic (i.v. or i.p.) administration” value in series [1] (i.pl. vs i.v. or i.p.) was “more potent when administered locally”. Besides, in series [1], the “formalin-evoked nociceptive response / pain behavior (whole testing period)” value is “inhibits”. Also, the paw volume in series [2] amounted to 0.35 ± 0.006 mL. Besides, the “nerve conduction in the rabbit corneal reflex test (local anesthetic activity)” value in series [3] is listed as “did not affect”. Besides, the “hot-plate latencies” value in series [4] (setting [6]) was determined as 22 ± 3 s; in series [4] (setting [7]) it was 23 ± 3 s; in series [4] (setting [8]), 21 ± 2 s; in series [4] (setting [9]) it was 25 ± 4 s; in series [4] (setting [10]), 26 ± 5 s; in series [4] (setting [11]), 22 ± 4 s. For the same compound, the “hot-plate latencies” value in series [4] (setting [12]) is given as 24 ± 2 s. Moreover, in series [4] (both injected in the cerebral ventricles), the “enhancement of the inhibitory activity of anandamide in the hot-plate test” value is reported as “did not enhance”. For the same compound, in series [4] (injection in the cerebral ventricles), the “behavioral responses to acute thermal stimuli, hot-plate test” value is given as “did not affect”.

In the case of `Cc1c(C(=O)NN2CCCCC2)nn(-c2ccc(Cl)cc2Cl)c1-c1ccc(Cl)cc1` [SR141716A, [N-(piperidin-1-yl)-5-(4-chlorophenyl)-1-(2,4-dichlorophenyl)-4-methyl-1H-pyrazole-3-carboxamide. HCl]], in series [1], the “blockade of the antinociceptive effects of anandamide plus PEA (0.1 μg each)” value is “prevent” and the “reversal of PEA-induced analgesia” value is on record as “ineffective”. Besides, in series [1] (0.1 mg per kg i.v.), the “reversal of the antinociceptive effects of anandamide, WIN-55212-2 and HU-210” value was “reversed”.

Turning to `C=CCN1CC[C@]23c4c5ccc(O)c4O[C@H]2C(=O)CC[C@@]3(O)[C@H]1C5` [naloxone], in series [1], the “reversal of PEA-induced analgesia” value is “ineffective”.

On to “N-[(1S)-endo-1,3,3-trimethyl bicyclo [2.2.1]heptan-2-yl]-5-(4-chloro-3-methylphenyl)-1-(4-methylbenzyl)-pyrazole-3-carboxamide [SR144528]”, for which, in series [1], the “blockade of the antinociceptive effects of anandamide plus PEA (0.1 μg each)” value is given as “prevent” and the “reversal of PEA-induced analgesia” value was “completely reversed”. Further, in series [1] (setting [13]), the “intrinsic effect of antagonist on early phase of formalin-evoked pain behavior” value is reported as “selective enhancement; also recorded: selectively enhanced” and the “intrinsic effect of antagonist on late phase of formalin-evoked pain behavior” value was “not”. Besides, in series [1] (0.1 mg per kg i.v.), the “reversal of the antinociceptive effects of anandamide, WIN-55212-2 and HU-210” value is recorded as “not”.

With `CCCCC/C=C\C/C=C\C/C=C\C/C=C\CCCC(=O)NCCO` [anandamide, arachidonylethanolamide], the “early phase of formalin-evoked pain behavior” value in series [1] was “completely blocked”. For the same compound, the “late phase of formalin-evoked pain behavior” value in series [1] is recorded as “lack of effect; also recorded: no effect”. In series [1] (i.pl. vs i.v.), the “potency in preventing formalin-evoked pain behavior, i.pl. relative to i.v.” value is reported as 100 times. Besides, in series [1], the “formalin-evoked nociceptive response / pain behavior (whole testing period)” value is “inhibits”. The “effect on formalin-evoked pain behavior” value in series [1] (intraperitoneal (i.p.)) was “no effect”. The “half-maximal inhibitory dose (ID50), formalin-evoked pain behavior” value in series [1] (intraplantar (i.pl.)) amounted to 0.1 mg per kg; in series [1] (intravenous (i.v.)), 10 mg per kg. The “hot-plate latencies” value in series [4] (setting [6]) is on record as 24 ± 4 s; in series [4] (setting [7]), 23 ± 3 s; in series [4] (setting [8]), 29 ± 3 s; in series [4] (setting [9]), 35 ± 2 s; in series [4] (setting [10]), 40 ± 3 s; in series [4] (setting [11]) it was 30 ± 3 s. Also, the “hot-plate latencies” value in series [4] (setting [12]) came out at 28 ± 3 s.

Consider `Cc1c(C(=O)c2cccc3ccccc23)c2cccc3c2n1[C@H](CN1CCOCC1)CO3` [WIN-55212-2], for which, in series [1], the “early phase of formalin-evoked pain behavior” value is given as “blocked” and the “late phase of formalin-evoked pain behavior” value is “blocked”.

Regarding `CCCCC/C=C\C/C=C\C/C=C\C/C=C\CCCC(=O)NCCO` [[^3H]anandamide], in series [5], the radioactivity in cerebellum amounted to 165±67 dpm per g, the radioactivity in forebrain is 79±19 dpm per g and the “radioactivity in spinal cord” value is 90±48 dpm per g. The “radioactivity in injected paw” value in series [5] (mean±s.e.m.) was 6648±820 dpm per g. Besides, in series [5] (three experiments), the “recovered [3H]anandamide remaining associated with the injected paw” value is given as 94%.
